Experiments:
[1] = system: NCI-H929; assay: Cytostatic activity on human multiple myeloma cell line NCI-H929 (WST-1); type: cell-based; conditions: 10 μmol/L, 72 hours; for inhibition at 10 µM: Homo sapiens, NCI-H929, 72 h, read-out: cytostatic rate (%) H929 (10 μmol/L)
Procedure, shortened: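 Cytostatic rate is 100 minus % growth relative to DMSO-only wells (100%) and blank wells (0%), read by WST-1 absorbance at 450/690 nm after 2 h. Compound at 1 or 10 μmol/L final was applied for 72 h at 37 °C to cells seeded 24 h earlier.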

[2] = system: KMS-11; assay: Cytostatic activity on human multiple myeloma cell line KMS-11 (WST-1); type: cell-based; conditions: 10 μmol/L, 72 hours; for inhibition at 10 µM: Homo sapiens, KMS-11, 72 h, read-out: cytostatic rate (%) KMS-11 (10 μmol/L)
Method: The cytostatic rates of a test compound on human multiple myeloma cell lines NCI-H929 and KMS-11, were determined in the following manner.
For culturing NCI-H929, Roswell Park Memorial Institute's Medium (RPMI) 1640 (Gibco, Catalog No. 11875-093) containing 15% fetal bovine serum (Gibco, Catalog No. 10099-141), 1 mmol/L sodium pyruvate (Gibco, Catalog No. 11360-070), 10 mmol/L HEPES (Gibco, Catalog No. 15630-80), 4.5 g/L glucose (Sigma, Catalog No. G8769), 0.05 mmol/L 2-mercaptethanol (Nacalai Tesque, Catalog No. 21418-42) and penicillin/streptomycin (1:1) (Gibco, Catalog No. 15140-122) was used. For culturing KMS-11 cell, RPMI 1640 medium containing 10% fetal bovine serum and penicillin/streptomycin (1:1) was used. Each 80 μL of the NCI-H929 cell having a concentration of 1×10^5 cells/mL (or the KMS-11 cell having a concentration of 7.5×10^4 cells/mL) was inoculated to wells of a TC MICROWELL 96U plate (Nalge Nunc International, Catalog No. 163320) and was cultured in a 5% carbon dioxide gas incubator at 37° C. for 24 hours. Each 20 μL of a solution of the test compound in dimethyl sulfoxide (DMSO) which was prepared to make the final concentration to 1 μmol/L or 10 μmol/L, was added to each well. Each 20 μL of DMSO was added to the control well and the blank well to a final concentration of 0.1%. After adding the test compound, the cells were incubated in a 5% carbon dioxide gas incubator at 37° C. for 72 hours except for the blank well. After adding 20 μL of WST-1 reagent {4-[3-(4-iodophenyl)-2-(4-nitrophenyl)-2H-5-tetrazolio]-1,3-benzene disulfonate sodium salt} (Roche Diagnostics K.K., Catalog No. 1644807), which was diluted to 50% by RPMI medium to each well, the cells were further incubated at 37° C. for 2 hours. Then, the absorbances at 450 nm (reference wavelength: 690 nm) were measured with a microplate spectrophotometer SPECTRA max 340PC (Molecular Devices Corporation). The relative growth (%) of a well to which the test compound had been added and cultured for 72 hours was determined while setting the absorbance of a well to which not the test compound but DMSO alone had been added and cultured for 72 hours (control) as 100% and that of a well where the drugs are added (blank) as 0%. The cytostatic rate (%) of the test compound was determined by subtracting the calculated relative growth from 100.

[3] = target: T1, IGF-1R (Homo sapiens, UniProt P08069); assay: IGF-1R inhibitory activity (kinase reaction, time-resolved fluoroimmunoassay); type: biochemical; conditions: IGF-1R active recombinant enzyme, test compound 10 μmol/L
T1 construct: purchased Upstate Co. 14-465
Procedure, shortened: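 Compounds were tested at a single 10 μmol/L concentration. Each was incubated with recombinant IGF-1R (200 μg/L), 10 mmol/L ATP, MgCl2/MnCl2 and Na3VO4 (pH 7.5) on immobilized poly(Glu-Tyr) peptide for 30 min at 24° C. Eu-anti-phosphotyrosine time-resolved fluorescence (340/615 nm) gave relative activity against no-compound and no-enzyme wells, reported as % inhibition.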

T1 sequence (P08069 959-1367 limits assumed): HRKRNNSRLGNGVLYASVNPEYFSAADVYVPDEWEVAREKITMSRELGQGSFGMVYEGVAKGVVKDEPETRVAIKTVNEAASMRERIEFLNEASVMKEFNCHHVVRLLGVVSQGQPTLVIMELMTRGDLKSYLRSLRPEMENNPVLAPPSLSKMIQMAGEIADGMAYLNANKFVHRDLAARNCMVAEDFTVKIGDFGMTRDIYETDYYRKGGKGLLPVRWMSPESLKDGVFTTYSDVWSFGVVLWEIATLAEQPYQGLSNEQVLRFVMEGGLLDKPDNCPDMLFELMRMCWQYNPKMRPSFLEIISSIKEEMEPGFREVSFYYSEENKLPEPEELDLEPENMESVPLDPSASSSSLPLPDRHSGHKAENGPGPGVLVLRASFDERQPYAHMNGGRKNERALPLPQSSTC

Row | SMILES | cytostatic rate (%) H929 (10 μmol/L) [1] [%] | cytostatic rate (%) KMS-11 (10 μmol/L) [2] [%] | inhibitory activity (%) at 10 μmol/L [3] [%] | inhibition at 10 µM [1] [%] | inhibition at 10 µM [2] [%] | inhibition at 10 µM [3] [%]
1 | CCC(O)(CC)C(=O)Nc1ccccc1/C=C/c1n[nH]c2ccccc12 [Compound 45, (E)-2-ethyl-2-hydroxy-N-{2-[2-(1H-indazol-3-yl)vinyl]phenyl}butylamide] | 115.0 | 98.3 | 97.4 |  |  | 
2 | O=C(Nc1ccccc1)c1ccccc1/C=C/c1n[nH]c2ccccc12 [Compound 47, (E)-N-phenyl-2-[2-(1H-indazol-3-yl)vinyl]benzamide] |  |  |  | 100 | 92.1 | 90.1
3 | Nc1ccn(C(=O)c2ccccc2/C=C/c2n[nH]c3ccccc23)n1 [Compound 48, (E)-3-amino-1-{2-[2-(1H-indazol-3-yl)vinyl]benzoyl}pyrazole] |  |  |  | 111 | 90.1 | 99.3
4 | Cn1cc([N+](=O)[O-])cc1C(=O)Nc1ccccc1/C=C/c1n[nH]c2ccccc12 [Compound 52, (E)-N-{2-[2-(1H-indazol-3-yl)vinyl]phenyl}-1-methyl-4-nitro-1H-pyrrole-2-carboxamide] |  |  |  | 119 | 128 | 98.5
5 | COc1cscc1C(=O)Nc1ccccc1/C=C/c1n[nH]c2ccccc12 [Compound 53, (E)-N-{2-[2-(1H-indazol-3-yl)vinyl]phenyl}-4-methoxythiophene-3-carboxamide] |  |  |  | 114 | 126 | 98.9
6 | O=C(Nc1ccccc1/C=C/c1n[nH]c2ccccc12)c1sccc1Cl [Compound 54, (E)-3-chloro-N-{2-[2-(1H-indazol-3-yl)vinyl]phenyl}thiophene-2-carboxamide] |  |  |  | 118 | 126 | 96.7
7 | Cn1c(C(=O)Nc2ccccc2/C=C/c2n[nH]c3ccccc23)cc2ccccc21 [Compound 55, (E)-N-{2-[2-(1H-indazol-3-yl)vinyl]phenyl}-1-methyl-1H-indole-2-carboxamide] |  |  |  | 115 | 132 | 98.9
8 | Nc1ccc(C(=O)Nc2ccccc2/C=C/c2n[nH]c3ccccc23)s1 [Compound 56, (E)-5-amino-N-{2-[2-(1H-indazol-3-yl)vinyl]phenyl}thiophene-2-carboxamide] |  |  |  | 116 | 134 | 99.3
9 | O=C(Nc1ccccc1/C=C/c1n[nH]c2ccccc12)c1cc2sccc2s1 [Compound 57, (E)-N-{2-[2-(1H-indazol-3-yl)vinyl]phenyl}thieno[3,2-b]thiophene-2-carboxamide] |  |  |  | 117 | 141 | 98.3
10 | Cc1c(C(=O)Nc2ccccc2/C=C/c2n[nH]c3ccccc23)sc2ccc(Cl)cc12 [Compound 58, (E)-5-chloro-N-{2-[2-(1H-indazol-3-yl)vinyl]phenyl}-3-methylbenzo[b]thiophene-2-carboxamide] |  |  |  | 69.8 | 119 | 86
11 | Cc1cc(C(=O)Nc2ccccc2/C=C/c2n[nH]c3ccccc23)c(C(F)(F)F)o1 [Compound 59, (E)-N-{2-[2-(1H-indazol-3-yl)vinyl]phenyl}-5-methyl-2-trifluoromethylfuran-3-carboxamide] |  |  |  | 110 | 106 | 86.3
12 | O=S(=O)(Nc1ccccc1/C=C/c1n[nH]c2ccccc12)c1cccs1 [Compound 60, (E)-N-{2-[2-(1H-indazol-3-yl)vinyl]phenyl}thiophene-2-sulfonamide] |  |  |  | 63.9 | 103 | 77.4
13 | O=C(Nc1ccccc1/C=C/c1n[nH]c2ccccc12)c1ccc([N+](=O)[O-])o1 [Compound 63, (E)-N-{2-[2-(1H-indazol-3-yl)vinyl]phenyl}-5-nitrofuran-2-carboxamide] |  |  |  | 109 | 125 | 99.2

Source: patent US7605272B2, “IGF-1R inhibitor” (Kyowa Hakko Kirin Co., Ltd., priority 2005, dated 2009)
